Measured values reported in US20250382308A1, “COMPOUNDS ACTIVE TOWARDS BROMODOMAINS” (NUEVOLUTION A/S, priority 2022, published 2025).
pIC50, pKd: −log10 of the molar value.

Columns and labels:
[1] = molecular target: first bromodomain of BRD4 (Homo sapiens (Human), UniProt O60885); assay: Bromoscan binding assay BRD4 (1)
Protocol: (§1) Compounds were assayed for binding affinity using bromoscan assays and a phosphodiesterase three assay.
(§2) Bromoscan assays were run by DiscoveRx Corporation. The relevant assay names are BRD4 (1) for the first bromodomain of BRD4 and BRD4 (2) for the second bromodomain of BRD4. Further Bromoscan assays covering other bromodomains may be employed to establish the selectivity profile of a compound of interest. To run the Bromoscan assay, a T7 phage strain displaying the relevant bromodomain was grown in parallel in 24-well blocks in an E. coli host derived from the BL21 strain. E. coli were grown to log-phase and infected with T7 phage from a frozen stock (multiplicity of infection=0.4) and incubated with shaking at 32° C. until lysis (90-150 minutes). The lysates were centrifuged (5,000×g) and filtered (0.2 μm) to remove cell debris. […] The liganded beads were blocked with excess biotin and washed with blocking buffer (SeaBlock (Pierce), 1% BSA (bovine serum albumin), 0.05% Tween 20, 1 mM DTT (dithiothreitol)) to remove unbound ligand and to reduce non-specific phage binding. […] Test compounds were prepared as 1000× stocks in 100% DMSO and subsequently diluted 1:10 in monoethylene glycol (MEG) to create stocks at 100× the screening concentration (resulting stock solution is 10% DMSO/90% MEG). The compounds were then diluted directly into the assays such that the final concentration of DMSO and MEG were 0.1% and 0.9%, respectively. All reactions were performed in polystyrene 96-well plates in a final volume of 0.135 ml. […] The bromodomain concentration in the eluates was measured by qPCR (quantitative real-time polymerase chain reaction). Binding constants (Kds) were calculated with a standard dose-response curve using the Hill equation: Response=Blackground+((Signal-Background)/(1+Kd^Hill Slope/Dose^Hill Slope)). The Hill Slope was set to −1. Curves were fitted using a non-linear least square fit with the Levenberg-Marquardt algorithm.

[2] = molecular target: second bromodomain of BRD4 (Homo sapiens (Human), UniProt O60885); assay: Bromoscan binding assay BRD4 (2); conditions: geometric mean where multiple measurements have been made
Protocol: as §1, §2

[3] = molecular target: human recombinant phosphodiesterase (PDE3A) (Homo sapiens (Human), UniProt Q14432); assay: Radiometric PDE3A assay; type: biochemical; conditions: [3H]-cAMP hydrolysis, 20 minutes at 30° C.
Chain of human recombinant phosphodiesterase (PDE3A) (Q14432 whole entry): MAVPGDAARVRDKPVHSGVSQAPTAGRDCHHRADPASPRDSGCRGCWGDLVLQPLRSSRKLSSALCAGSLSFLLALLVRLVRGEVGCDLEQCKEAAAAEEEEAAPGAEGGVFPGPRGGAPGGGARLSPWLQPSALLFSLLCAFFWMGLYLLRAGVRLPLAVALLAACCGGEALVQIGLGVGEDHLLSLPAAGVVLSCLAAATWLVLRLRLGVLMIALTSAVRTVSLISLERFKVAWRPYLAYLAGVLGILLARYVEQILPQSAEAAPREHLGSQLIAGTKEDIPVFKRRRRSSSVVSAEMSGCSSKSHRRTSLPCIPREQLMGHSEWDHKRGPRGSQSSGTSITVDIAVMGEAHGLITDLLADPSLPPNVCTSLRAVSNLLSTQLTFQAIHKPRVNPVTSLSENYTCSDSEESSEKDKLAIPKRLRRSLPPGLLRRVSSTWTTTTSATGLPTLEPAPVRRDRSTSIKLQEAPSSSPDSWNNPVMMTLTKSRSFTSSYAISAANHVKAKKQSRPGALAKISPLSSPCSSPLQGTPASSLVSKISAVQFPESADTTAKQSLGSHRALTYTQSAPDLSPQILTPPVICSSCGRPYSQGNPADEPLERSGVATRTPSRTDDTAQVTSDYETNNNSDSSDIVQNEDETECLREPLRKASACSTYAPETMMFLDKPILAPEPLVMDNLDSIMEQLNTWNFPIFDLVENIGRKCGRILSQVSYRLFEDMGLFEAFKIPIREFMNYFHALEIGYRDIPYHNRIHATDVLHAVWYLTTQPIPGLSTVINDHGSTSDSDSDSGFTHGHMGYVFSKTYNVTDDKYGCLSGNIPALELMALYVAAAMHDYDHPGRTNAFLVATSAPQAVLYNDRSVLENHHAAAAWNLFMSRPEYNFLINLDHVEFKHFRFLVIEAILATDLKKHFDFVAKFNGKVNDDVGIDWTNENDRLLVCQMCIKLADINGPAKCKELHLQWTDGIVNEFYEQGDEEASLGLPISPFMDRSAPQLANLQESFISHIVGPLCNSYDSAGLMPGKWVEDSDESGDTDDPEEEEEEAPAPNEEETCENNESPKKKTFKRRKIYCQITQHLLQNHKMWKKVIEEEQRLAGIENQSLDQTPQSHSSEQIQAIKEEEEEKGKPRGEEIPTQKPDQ
Protocol: Partially purified human recombinant phosphodiesterase (PDE3A) was obtained by cloning cDNA and expressing in S. frugiperda insect cells using a baculovirus expression system. Cells were harvested from culture by centrifuging at 400×g for 5 minutes. Cell pellet was resuspended in 20 ml of RIPA Buffer (150 mM NaCl, 10 mM Tris, 0.1% NP-40, pH8.3), 4 ml/200 ml of culture, plus protease inhibitors (100 μl/10 ml) and incubated on ice for 10-20 minutes then spun at 3500×g for 10 minutes at 4° C. Supernatant was kept and the pellet thrown away. Tritium-labeled cyclic AMP was hydrolysed to 5′-AMP by PDE3A. The 5′-AMP was then further hydrolysed to adenosine by nucleotidase in snake venom. An anion-exchange resin binds all charged nucleotides and leaves [3H]adenosine as the only labeled compound to be counted by liquid scintillation. The radiometric assay method is a modification of the two-step method of Thompson and Appleman [Biochemistry 10; 311-316; 1971], adapted for a 96 well plate format. 50 μl of diluted PDE3A was incubated with 50 μl of [3H]-CAMP (specific activity 25 Ci/mmol) and 11 μl of 50% DMSO (or compound dilution) for 20 minutes at 30° C. The enzyme was diluted in 20 mM Tris HCl pH7.4 (×2.2 final concentration) and [3H]-cAMP were diluted in 10 mM MgCl2, 40 mM Tris HCl pH 7.4 (×2.2 final concentration). Reactions were carried out in Greiner 96 deep well 1 ml master-block. The plates were centrifuged for 9 seconds before the 20 minutes incubation. The reaction was terminated by denaturing the PDE enzyme (at 70° C. for 2 minutes, plates were left to cool on ice for 10 minutes) after which 25 μl snake venom nucleotidase (225 ug/ml final concentration) was added and incubated for 10 minutes (at 30° C.), plates were centrifuged for 9 seconds before incubation. After incubation 200 μl Dowex resin (1×8, 200-400 mesh) was added and the plate was shaken for 20 minutes then centrifuged for 3 minutes at 1000×g. 50 μl of supernatant was removed and added to 200 μl of MicroScint-20 in white plates (Greiner 96-well Optiplate) and shaken for 30 minutes before reading on Perkin Elmer TopCount Scintillation Counter. GraphPad Prism™ was used to calculate the IC50 values using a sigmoidal dose response (variable slope). The analysis measures 4 parameters including the best fit values for the bottom and top fit of the curve, the hill slope value and the IC50 value.

Structure (SMILES): COc1cc(NC(=O)c2cc3c(nc2N(C)C)COC3)cc2c(C)cc(=O)[nH]c12 [Example 6, 2-(dimethylamino)-N-(8-methoxy-4-methyl-2-oxo-1H-quinolin-6-yl)-5,7-dihydrofuro[3,4-b]pyridine-3-carboxamide]
- pKd ([1]; Bromoscan, geometric mean where multiple measurements have been made): 6.92
- Selectivity BRD4(2)/BRD4(1) ([1]; ratio BRD4(2) Kd / BRD4(1) Kd): 11
- pKd [2]: 5.89
- pIC50 [3]: < 5.00
